Measurements: US7462600B2, “Macrolides” (Pfizer Inc, priority 2004, dated 2008)
≈ marks a conversion by molar mass, not a printed value.

What was measured:
Assay type in all cases: cell-based
[1] = test system: Streptococcus pyogenes 1079; assay: MIC, microtiter broth dilution (NCCLS M100-S14), S. pyogenes 1079 (ermB); conditions: S. pyogenes 1079 (ermB)
Summary of the method: (§1)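 Broth microdilution MICs in microtiter trays, run and interpreted per NCCLS M100-S14. Compounds were dissolved in DMSO as 40 mg/ml stocks.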

[2] = test system: Streptococcus pneumoniae 1016; assay: MIC, microtiter broth dilution (NCCLS M100-S14), S. pneumoniae 1016 (susceptible); conditions: S. pneumoniae 1016 (susceptible)
Summary of the method: as §1

[3] = test system: Haemophilus influenzae 1218; assay: MIC, microtiter broth dilution (NCCLS M100-S14), H. influenzae 1218 (susceptible); conditions: H. influenzae 1218 (susceptible)
Summary of the method: as §1

[4] = test system: Streptococcus pneumoniae 1175; conditions: S. pneumoniae 1175 (mefA); microtiter broth dilution
Summary of the method: as §1

[5] = test system: Streptococcus pneumoniae 1095; conditions: S. pneumoniae 1095 (ermB); microtiter broth dilution
Summary of the method: as §1

## CC[C@H]1OC(=O)[C@H](C)C(=O)[C@H](C)[C@@H](O[C@@H]2O[C@H](C)C[C@H](N(C)C)[C@H]2O)[C@](C)(OC)C[C@@H](C)C(=O)[C@H](C)[C@H]2N(C[C@H]3CCCN3C(=O)c3cccc4ncsc34)C(=O)O[C@]12C.O=CO [10.22]
[1]
  MIC S. pyogenes 1079: 64 µg/mL
[2]
  MIC S. pneumo. 1016: <0.06 µg/mL
[3]
  MIC H. influenzae 1218: 2.5 µg/mL
[4]
  MIC S. pneumo. 1175: 2 µg/mL
[5]
  MIC S. pneumo. 1095: 0.12 µg/mL

## CCC1OC(=O)C(C)C(=O)C(C)C(OC2OC(C)CC(N(C)C)C2O)C(C)(OC)CC(C)C(=O)C(C)C2N(CC3CCCN3C(=O)c3cccc4ncoc34)C(=O)OC12C (stereo not drawn) [10.23]
[1]
  MIC S. pyogenes 1079: >64.00 µg/mL
[2]
  MIC S. pneumo. 1016: <0.06 µg/mL
[3]
  MIC H. influenzae 1218: 8 µg/mL (≈ 9.51 µM)
[4]
  MIC S. pneumo. 1175: 1 µg/mL (≈ 1.19 µM)
[5]
  MIC S. pneumo. 1095: <0.06 µg/mL

## CCC1OC(=O)C(C)C(=O)C(C)C(OC2OC(C)CC(N(C)C)C2O)C(C)(OC)CC(C)C(=O)C(C)C2N(CC3CCCN3C(=O)c3nc4ccncc4[nH]3)C(=O)OC12C (stereo not drawn) [10.24]
[1]
  MIC S. pyogenes 1079: >64.00 µg/mL
[2]
  MIC S. pneumo. 1016: <0.06 µg/mL
[3]
  MIC H. influenzae 1218: 2 µg/mL (≈ 2.38 µM)
[4]
  MIC S. pneumo. 1175: 1 µg/mL (≈ 1.19 µM)
[5]
  MIC S. pneumo. 1095: <0.06 µg/mL

## CCC1OC(=O)C(C)C(=O)C(C)C(OC2OC(C)CC(N(C)C)C2O)C(C)(OC)CC(C)C(=O)C(C)C2N(CC3CCCN3C(=O)c3nc4cccnc4[nH]3)C(=O)OC12C (stereo not drawn) [10.25]
[1]
  MIC S. pyogenes 1079: >64.00 µg/mL
[2]
  MIC S. pneumo. 1016: <0.06 µg/mL
[3]
  MIC H. influenzae 1218: 4 µg/mL (≈ 4.76 µM)
[4]
  MIC S. pneumo. 1175: 0.5 µg/mL (≈ 0.595 µM)
[5]
  MIC S. pneumo. 1095: <0.06 µg/mL

## CCC1OC(=O)C(C)C(=O)C(C)C(OC2OC(C)CC(N(C)C)C2O)C(C)(OC)CC(C)C(=O)C(C)C2N(CC3CCCN3C(=O)c3nc4cncnc4[nH]3)C(=O)OC12C (stereo not drawn) [10.26]
[1]
  MIC S. pyogenes 1079: >64.00 µg/mL
[2]
  MIC S. pneumo. 1016: <0.06 µg/mL
[3]
  MIC H. influenzae 1218: 2 µg/mL (≈ 2.38 µM)
[4]
  MIC S. pneumo. 1175: 1 µg/mL (≈ 1.19 µM)
[5]
  MIC S. pneumo. 1095: <0.06 µg/mL

## CCC1OC(=O)C(C)(F)C(=O)C(C)C(OC2OC(C)CC(N(C)C)C2O)C(C)(OC)CC(C)C(=O)C(C)C2N(CC3CCCN3C(=O)c3cc4ccccn4n3)C(=O)OC12C (stereo not drawn) [10.28]
[1]
  MIC S. pyogenes 1079: 16 µg/mL (≈ 18.6 µM)
[2]
  MIC S. pneumo. 1016: <0.06 µg/mL
[3]
  MIC H. influenzae 1218: 1 µg/mL (≈ 1.17 µM)
[4]
  MIC S. pneumo. 1175: 0.12 µg/mL (≈ 0.14 µM)
[5]
  MIC S. pneumo. 1095: <0.06 µg/mL

## CCC1OC(=O)C(C)(F)C(=O)C(C)C(OC2OC(C)CC(N(C)C)C2O)C(C)(OC)CC(C)C(=O)C(C)C2N(CC3CCCN3C(=O)c3nccc4ccccc34)C(=O)OC12C (stereo not drawn) [10.29]
[1]
  MIC S. pyogenes 1079: 16 µg/mL (≈ 18.4 µM)
[2]
  MIC S. pneumo. 1016: <0.06 µg/mL
[3]
  MIC H. influenzae 1218: 2 µg/mL (≈ 2.3 µM)
[4]
  MIC S. pneumo. 1175: 0.12 µg/mL (≈ 0.138 µM)
[5]
  MIC S. pneumo. 1095: <0.06 µg/mL

## CCC1OC(=O)C(C)(F)C(=O)C(C)C(OC2OC(C)CC(N(C)C)C2O)C(C)(OC)CC(C)C(=O)C(C)C2N(CC3CCCN3C(=O)c3ccc4cccnc4n3)C(=O)OC12C (stereo not drawn) [10.30]
[1]
  MIC S. pyogenes 1079: 32 µg/mL (≈ 36.8 µM)
[2]
  MIC S. pneumo. 1016: <0.06 µg/mL
[3]
  MIC H. influenzae 1218: 2 µg/mL (≈ 2.3 µM)
[4]
  MIC S. pneumo. 1175: 0.12 µg/mL (≈ 0.138 µM)
[5]
  MIC S. pneumo. 1095: <0.06 µg/mL

## CCC1OC(=O)C(C)C(=O)C(C)C(OC2OC(C)CC(N(C)C)C2O)C(C)(OC)CC(C)C(=O)C(C)C2N(CC3CCCN3C(=O)c3ccc4[nH]ncc4c3)C(=O)OC12C (stereo not drawn) [10.32]
[1]
  MIC S. pyogenes 1079: >64.00 µg/mL
[2]
  MIC S. pneumo. 1016: <0.06 µg/mL
[3]
  MIC H. influenzae 1218: 1 µg/mL (≈ 1.19 µM)
[4]
  MIC S. pneumo. 1175: 0.5 µg/mL (≈ 0.595 µM)
[5]
  MIC S. pneumo. 1095: <0.06 µg/mL
